Tests used:
MB cell lines = experiment: AZA treatment, miR-199b-5p expression by real-time PCR; format: cell-based; conditions: two cell lines (Med8 and UV238) of a panel of five; 5 μM, 72 h
Experimental: Five MB cell lines (d283, Daoy, med8a, ons76, uw228) were grown in DMEM supplemented with 10% FBS and antibiotics. Upon reaching 85% confluence, the media was spiked with 5-aza-deoxycytidine (AZA) (Sigma) to a final concentration of 5 μM. Over 72 h the media was replaced daily with fresh AZA-enhanced medium. RNA was extracted using a standard phenol (TRIzol)-chloroform protocol.

Daoy cell line [1] = experiment: DAPT treatment, stem-cell gene expression by real-time PCR; format: cell-based, human; conditions: Daoy + DAPT 12 h
Experimental: Total RNA was extracted from the cell lines using the Trizol reagent (Invitrogen). Synthesis of cDNA from total RNA (4 μg) was performed using a Super Script II First Strand Kit (Invitrogen). Real-time quantitative PCR was performed using standard protocols with an Applied Biosystems ABI PRISM 7900HT Sequence Detection system. To calculate the relative gene expression of the miR-199b-5p precursor, the relative amounts of each pre-miRNA were normalized to U6 miRNA; the other genes were normalized using the β-actin gene. Real-time PCR primers for each gene were designed using Primer Express software version 2.0 (Applied Biosystems). The primer sequences are available upon request.
(§1) N—[N-(3,5-difluorophenacetyl)-l-alanyl]-S-phenylglycine t-butylester (DAPT (Sigma-Aldrich) treatment of the Daoy cells was performed as follows: the cells were plated and allowed to grow overnight in medium containing 10% FBS. The next morning, the medium was replaced with medium containing 10 μM DAPT and replaced each 4 h with this medium. The expression assays was performed after 0, 6, 12, 24 h of treatment […], using control experiments including the corresponding volume of DMSO as vehicle.

Daoy cell line [2] = experiment: DAPT treatment, miR-199b expression by real-time PCR; format: cell-based, human; conditions: 10 μM DAPT, 12 h, relative to time 0
Experimental: The reverse transcriptase (RT) reactions contained 40 ng RNA sample, 50 nM stem-loop RT primer, 1×RT buffer (P/N:4319981, Applied Biosystems), 0.25 mM each of dNTPs, […] MultiScribe RT (P/N: 4319983, Applied Biosystems) and […] RNase inhibitor (P/N: N8080119; Applied Biosystems). The 15 μl reactions were incubated in an Applied Biosystems 9700 Thermocycler for 30 min at 16° C., 30 min at 42° C., 5 min at 85° C., and then held at 4° C.
Real-time PCR was performed using a standard TaqMan PCR kit protocol on an Applied Biosystems 7900HT Sequence Detection System. The 20 μl PCR mix included 2 μl RT product, 10 μl TaqMan Universal PCR Master Mix (Applied Biosystems), […] TaqMan probe. The reactions were incubated in a 96-well plate at 95° C. for 10 min, followed by 60 cycles of 95° C. for 15 s and 60° C. for 1 min.
as §1

HES1 = experiment: Western blotting of HES1 protein; format: cell-based, human; conditions: Daoy cell line, DAPT 12 h
Experimental: Thirty μg cytosolic or nuclear lysates were loaded onto 12% polyacrilamide gels, and blotted onto polyvinylidene difluoride membranes (PVDF; BioRad, Milan, Italy). The membranes were then incubated with anti-HES1 (kind gift of Dr. Tetsuo Sudo TORAY Industries, Tebiro Kamakura, Japan), a polyclonal rabbit antibody (1:500), an anti-GSK3-β (B&D Bioscience) monoclonal antibody (1:2500), an anti-c-Myc polyclonal rabbit antibody (1:200) (Santa Cruz Biotechnology, Santa Cruz, Calif., USA), an anti-GABRA6 antibody (Santa Cruz Biotechnology, Santa Cruz, USA) (1:200), an anti-MATH3 antibody (Santa Cruz Biotechnology, Santa Cruz, USA) (1:200) and an anti-cyclin D1 (1:200) polyclonal rabbit antibody (Cell Signaling). An anti-β-actin antibody (1:1.000) (Sigma) was used as the control for equal loading of cytosolic lysates and a polyclonal anti-β-laminin antibody (1:50) (Santa Cruz Biotechnology, Santa Cruz, Calif., USA) for equal loading of nuclear lysates.

`Nc1ncn([C@H]2C[C@H](O)[C@@H](CO)O2)c(=O)n1` [5-aza-deoxycytidine] was tested, and the miR-199b-5p expression (MB cell lines) was “significant up-regulation”.

In the case of `C[C@H](NC(=O)Cc1cc(F)cc(F)c1)C(=O)N[C@H](C(=O)OC(C)(C)C)c1ccccc1` [DAPT, N—[N-(3,5-difluorophenacetyl)-l-alanyl]-S-phenylglycine t-butylester], the “CD 133 expression 2^-DCt” value (Daoy cell line [1]) is reported as 0.001237, the “HMGA1 expression 2^-DCt” value (Daoy cell line [1]) is reported as 0.004879 and the “HMGB3 expression 2^-DCt” value (Daoy cell line [1]) is reported as 0.005577. For the same compound, the “ILF3 expression 2^-DCt” value (Daoy cell line [1]) was 0.04252, the “KLF5 expression 2^-DCt” value (Daoy cell line [1]) was 0.02368 and the “MYBL2 expression 2^-DCt” value (Daoy cell line [1]) was 0.003932. For the same compound, the “Nanog expression 2^-DCt” value (Daoy cell line [1]) was 0.0004488, the “Oct4 expression 2^-DCt” value (Daoy cell line [1]) was 0.0007941 and the “PDGFR-A expression 2^-DCt” value (Daoy cell line [1]) was 0.0000015. The “PDGFR-B expression 2^-DCt” value (Daoy cell line [1]) was 0.0000606, the “SPARC expression 2^-DCt” value (Daoy cell line [1]) was 0.07977 and the “TCF7L1 expression 2^-DCt” value (Daoy cell line [1]) was 0.0001026. The “TEAD4 expression 2^-DCt” value (Daoy cell line [1]) was 0.005176, the “ZIC1 expression 2^-DCt” value (Daoy cell line [1]) was 0.0002784 and the “c-Myc expression 2^-DCt” value (Daoy cell line [1]) was 0.05427. The “increase of miR-199b-5p level” value (Daoy cell line [2]) was 9 fold and the “HES1 protein (Western blot)” value (HES1) was “down-regulation”.

From US9017938B2, “Use of microrna-199b-5p in medical and diagnostic field” (Advanced Accelerator Applications, priority 2009, dated 2015)
